The NIST ThermoML archive (doi:10.1021/je060142u)
Numbers after ± are expanded uncertainties.

Assay: activity coefficient (dimensionless); of the first substance listed, at infinite dilution; xn = mol fraction of the nth substance listed
Settings: 101 kPa, Liquid, Chromatography, x1 = 0

activity coefficient (303.15 K)	activity coefficient (313.15 K)	activity coefficient (323.15 K)	activity coefficient (333.15 K)	activity coefficient (343.15 K)	Structure (SMILES)
1.74 ± 0.15	1.76 ± 0.15	1.77 ± 0.15	1.8 ± 0.15	1.83 ± 0.16	c1ccccc1 [benzene] + CCCCn1cc[n+](C)c1.F[B-](F)(F)F
14.1 ± 1.2	13.5 ± 1.2	12.9 ± 1.1	12.4 ± 1.1	11.9 ± 1	C1=CCCCC1 [cyclohexene] + CCCCn1cc[n+](C)c1.F[B-](F)(F)F
414 ± 36	335 ± 29	320 ± 28	296 ± 26	279 ± 24	CCCCCCCCCC [decane] + CCCCn1cc[n+](C)c1.F[B-](F)(F)F
5.61 ± 0.48	5.54 ± 0.48	5.49 ± 0.47	5.42 ± 0.47	5.37 ± 0.46	CCc1ccccc1 [ethylbenzene] + CCCCn1cc[n+](C)c1.F[B-](F)(F)F
92.5 ± 8	86.7 ± 7.5	81.7 ± 7.1	78.9 ± 6.8	71.5 ± 6.2	CCCCCCC [heptane] + CCCCn1cc[n+](C)c1.F[B-](F)(F)F
48.7 ± 4.2	45.6 ± 3.9	42.4 ± 3.7	39.8 ± 3.5	37.3 ± 3.2	CC1CCCCC1 [methylcyclohexane] + CCCCn1cc[n+](C)c1.F[B-](F)(F)F
139 ± 12	136 ± 12	127 ± 11	119 ± 10	111 ± 9.6	CCCCCCCC [octane] + CCCCn1cc[n+](C)c1.F[B-](F)(F)F
2.29 ± 0.2	2.29 ± 0.2	2.34 ± 0.2	2.41 ± 0.21	2.48 ± 0.21	C=Cc1ccccc1 [styrene] + CCCCn1cc[n+](C)c1.F[B-](F)(F)F

Further lines, the molecule ahead of its results:

Structure (SMILES)	activity coefficient (303.15 K)	activity coefficient (313.15 K)	activity coefficient (323.15 K)	activity coefficient (333.15 K)	activity coefficient (343.15 K)
Cc1ccccc1C [1,2-dimethylbenzene] + CCCCn1cc[n+](C)c1.F[B-](F)(F)F	4.2 ± 0.36	4.18 ± 0.36	4.16 ± 0.36	4.16 ± 0.36	4.14 ± 0.36
Cc1cccc(C)c1 [1,3-dimethylbenzene] + CCCCn1cc[n+](C)c1.F[B-](F)(F)F	5.25 ± 0.45	5.24 ± 0.45	5.23 ± 0.45	5.23 ± 0.45	5.22 ± 0.45
Cc1ccc(C)cc1 [1,4-dimethylbenzene] + CCCCn1cc[n+](C)c1.F[B-](F)(F)F	4.97 ± 0.43	5.15 ± 0.44	5.28 ± 0.46	5.33 ± 0.46	5.47 ± 0.47
CC(C)CC(C)(C)C [2,2,4-trimethylpentane] + CCCCn1cc[n+](C)c1.F[B-](F)(F)F	92.7 ± 8	88.6 ± 7.7	83.8 ± 7.3	79.5 ± 6.9	75.5 ± 6.5
C1CCCCC1 [cyclohexane] + CCCCn1cc[n+](C)c1.F[B-](F)(F)F	32.4 ± 2.8	30.2 ± 2.6	28.3 ± 2.5	26.9 ± 2.3	24.6 ± 2.1
CCCCCC [hexane] + CCCCn1cc[n+](C)c1.F[B-](F)(F)F	60.8 ± 5.3	57.5 ± 5	54.2 ± 4.7	50.5 ± 4.4	47 ± 4.1
CCCCCCCCC [nonane] + CCCCn1cc[n+](C)c1.F[B-](F)(F)F	224 ± 20	193 ± 17	187 ± 16	179 ± 16	170 ± 15
CCCCC [pentane] + CCCCn1cc[n+](C)c1.F[B-](F)(F)F	40.7 ± 3.5	39.7 ± 3.4	38.1 ± 3.3	36.3 ± 3.1	35.8 ± 3.1
Cc1ccccc1 [toluene] + CCCCn1cc[n+](C)c1.F[B-](F)(F)F	2.91 ± 0.25	2.94 ± 0.25	2.95 ± 0.25	2.99 ± 0.26	3.03 ± 0.26
